# Where two headings read alike, the source gives them in different places.
# Key:
# [1] = system: TAMR-MCF-7 tamoxifen resistant breast cancer cells; assay: TAMR-MCF-7 tamoxifen resistant breast cancer xenografted model, intraperitoneal
# [2] = system: MCF-7 ER positive breast cancer cells
# Text: (§1) The tumor volume and shape in the nude mouse have been observed for 24 days.
# [3] = Experimental: Chemical name (IUPAC) of AGM-130 is (2′Z 3′E)-5′-hydroxy-5-nitro indirubin oxime. […] For the practical formulation of injectable aqueous solution, AGM-130 in PEG300 solution is diluted with 0.1 N Na2CO3 in saline solution to 70% aqueous solution with final concentration of 3.75 mg/mL.
# [4] = system: HCT-116 colorectal cancer cells; conditions: 10 mg/kg intraperitoneally every other day
# Experimental: The tumor has been grown after injecting HCT-116 colorectal cancer cells (10×10^6 cells/0.1 ml of non-serum matrigel medium) to the nude mouse.
# as §1
# [5] = system: LDH (Lactate dehydrogenase)
# Text: Further, we have analyzed the secretion of LDH (Lactate dehydrogenase) enzyme to media as a representative necrosis biomarker.
# [6] = system: Her2 positive breast cancer cell lines; conditions: 4 types of Her2 positive breast cancer cell lines
# [7] = system: MDA-MB-231 triple negative breast cancer cells
# Text: After implanting MDA-MB-231 triple negative breast cancer cells to the nude mouse, the tumor has been grown to the 200 mm^3 volume.
# as §1
# [8] = 3 mg/kg intravenously once a week, day 0
# [9] = 3 mg/kg intravenously once a week, day 3
# [10] = 3 mg/kg intravenously once a week, day 6
# [11] = 3 mg/kg intravenously once a week, day 9
# [12] = 3 mg/kg intravenously once a week, day 12
# [13] = 3 mg/kg intravenously once a week, day 15
# [14] = 3 mg/kg intravenously once a week, day 18
# [15] = 3 mg/kg intravenously once a week, day 21
# [16] = 3 mg/kg intravenously once a week, day 24
# [17] = 7 mg/kg intravenously once a week, day 0
# [18] = 7 mg/kg intravenously once a week, day 3
# [19] = 7 mg/kg intravenously once a week, day 6
# [20] = 7 mg/kg intravenously once a week, day 9
# [21] = 7 mg/kg intravenously once a week, day 12
# [22] = 7 mg/kg intravenously once a week, day 15
# [23] = 7 mg/kg intravenously once a week, day 18
# [24] = 7 mg/kg intravenously once a week, day 21
# [25] = 7 mg/kg intravenously once a week, day 24
# [26] = 14 mg/kg intravenously once a week, day 0
# [27] = 14 mg/kg intravenously once a week, day 3
# [28] = 14 mg/kg intravenously once a week, day 6
# [29] = 14 mg/kg intravenously once a week, day 9
# [30] = 14 mg/kg intravenously once a week, day 12
# [31] = 14 mg/kg intravenously once a week, day 15
# [32] = 14 mg/kg intravenously once a week, day 18
# [33] = 14 mg/kg intravenously once a week, day 21
# [34] = 14 mg/kg intravenously once a week, day 24
structure (smiles),measurement,setting,value
"O=C1Nc2ccc([N+](=O)[O-])cc2C1=C1Nc2ccc(O)cc2C1=NO [AGM-130, (2′Z 3′E)-5′-hydroxy-5-nitro indirubin oxime]",reduction of tumor volume,"[1]; 10 mg/kg and 40 mg/kg, FIG. 8",significantly observed
same,tumor volume reduction compared to control group,[1]; 10 mg/kg intraperitoneally twice a week,about 54%
same,tumor volume reduction compared to control group,[1]; 40 mg/kg intraperitoneally twice a week,about 45%
same,weight of mouse compared to control group,[1]; 10/40 mg/kg,changed significantly
same,tumor volume reduction compared to control group,[2]; 3 mg/kg intravenously,about 49%
same,volume of tumor,[2]; [8],131.9 ± 8.6
same,volume of tumor,[2]; [9],167.5 ± 7.1
same,volume of tumor,[2]; [10],182.3 ± 4.2
same,volume of tumor,[2]; [11],253.3 ± 7.9
same,volume of tumor,[2]; [12],311.9 ± 2.3
same,volume of tumor,[2]; [13],337.5 ± 11.0
same,volume of tumor,[2]; [14],359.8 ± 15.6
same,volume of tumor,[2]; [15],408.2 ± 19.0
same,volume of tumor,[2]; [16],434.5 ± 18.3
same,tumor volume reduction compared to control group,[2]; 7 mg/kg intravenously,about 64%
same,volume of tumor,[2]; [17],129.1 ± 3.8
same,volume of tumor,[2]; [18],166.9 ± 7.4
same,volume of tumor,[2]; [19],190.0 ± 6.3
same,volume of tumor,[2]; [20],205.6 ± 11.4
same,volume of tumor,[2]; [21],235.6 ± 7.1
same,volume of tumor,[2]; [22],267.3 ± 9.4
same,volume of tumor,[2]; [23],288.1 ± 6.2
same,volume of tumor,[2]; [24],300.2 ± 15.4
same,volume of tumor,[2]; [25],310.1 ± 18.2
same,tumor volume reduction compared to control group,[2]; 14 mg/kg intravenously,about 69%
same,volume of tumor,[2]; [26],127.8 ± 2.4
same,volume of tumor,[2]; [27],156.8 ± 4.7
same,volume of tumor,[2]; [28],180.6 ± 5.0
same,volume of tumor,[2]; [29],202.9 ± 3.8
same,volume of tumor,[2]; [30],210.6 ± 5.1
same,volume of tumor,[2]; [31],234.7 ± 17.8
same,volume of tumor,[2]; [32],249.4 ± 15.3
same,volume of tumor,[2]; [33],264.8 ± 12.9
same,volume of tumor,[2]; [34],268.7 ± 8.7
same,solubility,[3]; in DMF and DMSO,soluble
same,solubility,[3]; in ethanol and acetone,very difficult to dissolve
same,solubility,[3]; in water,practically insoluble
same,volume of tumor,[4]; FIG. 12,cannot be reduced significantly
same,volume of tumor,[4]; FIG. 13,cannot be reduced significantly
same,apoptosis and necrosis (LDH secretion),[5],apoptosis and necrosis have been induced at the same time
same,IC50,[6],> 3000 nM
same,tumor volume reduction compared to control group,[7]; 3 mg/kg intravenously,about 31%
same,volume of tumor,[7]; [8],341.5 ± 14.4
same,volume of tumor,[7]; [9],474.6 ± 26.4
same,volume of tumor,[7]; [10],602.5 ± 44.1
same,volume of tumor,[7]; [11],693.1 ± 61.0
same,volume of tumor,[7]; [12],838.0 ± 79.9
same,volume of tumor,[7]; [13],996.9 ± 79.9
same,volume of tumor,[7]; [14],1217.5 ± 81.8
same,volume of tumor,[7]; [15],1398.0 ± 78.1
same,volume of tumor,[7]; [16],1871.4 ± 175.5
same,tumor volume reduction compared to control group,[7]; 7 mg/kg intravenously,about 47%
same,volume of tumor,[7]; [17],355.4 ± 10.7
same,volume of tumor,[7]; [18],451.9 ± 10.2
same,volume of tumor,[7]; [19],543.4 ± 10.9
same,volume of tumor,[7]; [20],615.5 ± 19.0
same,volume of tumor,[7]; [21],651.0 ± 47.1
same,volume of tumor,[7]; [22],677.9 ± 46.7
same,volume of tumor,[7]; [23],899.6 ± 59.6
same,volume of tumor,[7]; [24],1108.9 ± 88.1
same,volume of tumor,[7]; [25],1436.1 ± 84.8
same,tumor volume reduction compared to control group,[7]; 14 mg/kg intravenously,about 61%
same,volume of tumor,[7]; [26],342.1 ± 20.7
same,volume of tumor,[7]; [27],408.5 ± 10.3
same,volume of tumor,[7]; [28],470.8 ± 20.4
same,volume of tumor,[7]; [29],525.4 ± 35.6
same,volume of tumor,[7]; [30],535.3 ± 39.0
same,volume of tumor,[7]; [31],581.5 ± 44.8
same,volume of tumor,[7]; [32],696.1 ± 54.6
same,volume of tumor,[7]; [33],831.0 ± 75.1
same,volume of tumor,[7]; [34],1064.3 ± 39.8
same,weight of tumor,"[7]; intravenously, FIG. 6",dose-dependently reduced
